Assay results taken from patent US12221422B2, “Compounds and their use for the treatment of alpha1-antitrypsin deficiency” (CENTESSA PHARMACEUTICALS (UK) LIMITED, priority 2018, dated 2025).

What was measured:
[1] = Pharmacokinetics in rats; type: in vivo; conditions: rat, whole blood, Sprague Dawley rats, iv 2 mg/kg or oral 10 mg/kg; for half-life: read-out: Half-life in blood (t1/2); for clearance: read-out: Observed clearance; for Vd: read-out: Volume of distribution (Vz)
Experimental: Compounds were administered to Sprague Dawley rats intravenously (2 mg/kg) or orally (10 mg/kg) by gavage. Whole blood diluted with water was prepared from these dosed animals over a time course up to 24 hours post dose to allow blood concentrations of drug to be measured by UPLC-MS/MS.

[2] = target: human Z A1AT (Homo sapiens, UniProt P01009, E366K); assay: A1AT cell secretion assay using HEK-Z cells (ELISA); type: cell-based; parameters: expressed in transfected cells; host or cells: HEK-Z (HEK-EBNA cells containing the Z A1AT plasmid); conditions: HEK-Z cells, 10, 33, 100 and 333 nM, 48 h, cell supernatant
Experimental: HEK-Z cells, a human embryonic kidney cell line stably transfected with the human Z A1AT gene, were plated into 96 well plates (3.0×10^5 cells/ml with 200 μl of media/well) overnight at 37° C. in a humidified atmosphere containing 5% CO2. Following incubation cells were washed with 200 μl serum-free media three times and media was replaced with treatments in quadruplicate using serum-free media containing either vehicle, 10 μM suberanilohydroxamic acid (SAHA), N,N-dimethyl-4-((6-oxopyrimidin-1(6H)-yl)methyl)benzamide (at concentrations of 10, 33, 100 and 333 nM), N,N-(bis-methyl-d3)-4-((6-oxopyrimidin-1(6H)-yl)methyl)benzamide (at concentrations of 10, 33, 100 and 333 nM) or N-methyl-4-((6-oxopyrimidin-1(6H)-yl)methyl)benzamide (at concentrations of 10, 33, 100 and 333 nM) for 48 h in a 37° C. incubator in a final volume of 200 μl. At the end of the incubation step the supernatants were removed from the wells, centrifuged at 1000×g at 4° C. for 10 min and were assayed for human A1AT levels by ELISA (Human Serpin A1/α1-antitrypsin duo set ELISA, R& D Systems, DY1268) per manufacturer's instructions.
(§1) Briefly, a 96 well plate was coated with human A1AT capture antibody overnight at room temperature (1:180 dilution from stock, 100 μl final volume/well). The capture antibody was then removed and wells washed three times with 300 μl wash buffer (0.05% Tween 20 in PBS) and then 200 μl reagent diluent (25% Tween 20 in PBS) was incubated in each well for 1 h at room temperature. […] After which, 50 μl stop solution (2M H2SO4) was added and optical density (OD) of each well was read at 450 nm with 570 nm blank subtracted from each well using a microplate reader. A 4 parameter logistic curve was constructed using GraphPad Prism 7 and A1AT concentrations were determined in each sample by interpolation from a standard curve and multiplying by the appropriate dilution factor.
(§2) The amount of A1AT secreted from transfected HEK-EBNA cells into the media was measured by ELISA. […]

[3] = target: T1, human Siiyama A1AT (Homo sapiens, UniProt P01009, S77F); assay: A1AT cell secretion assay using HEK-Siiyama cells (ELISA); type: cell-based; conditions: 10 μM, 48 h, positive control
T1 construct: expressed in transfected cells; host or cells: HEK-Siiyama (HEK-EBNA cells containing the Siiyama A1AT plasmid)
Experimental: (§3) HEK-Siiyama cells, a human embryonic kidney cell line stably transfected with the human Siiyama A1AT gene, were plated into 96 well plates (3.0×10^5 cells/ml with 200 μl of media/well) overnight at 37° C. in a humidified atmosphere containing 5% CO2. Following incubation cells were washed with 200 μl serum-free media three times and media was replaced with serum-free media containing either vehicle, 10 μM suberanilohydroxamic acid (SAHA) or a compound of the invention (at 1 or 10 μM) in replicates of eight for 48 h in a 37° C. incubator in a final volume of 200 μl. […]
as §1, with “volume/well).” for “volume/well). The capture antibody was then removed and wells washed three times with 300 μl wash buffer (0.05% Tween 20 in PBS) and then 200 μl reagent diluent (25% Tween 20 in PBS) was incubated in each well for 1 h at room temperature.”
The amount of human A1AT secreted from transfected HEK-EBNA cells into the media was measured by ELISA. […]

[4] = target: T2, human M A1AT (Homo sapiens, UniProt P01009); assay: A1AT cell secretion assay using HEK-M cells (ELISA); type: cell-based; conditions: 10 μM, 48 h
T2 construct: expressed in transfected cells; host or cells: HEK-M (HEK-EBNA cells containing the M A1AT plasmid)
Experimental: as §3, with “HEK-M” for “HEK-Siiyama”, “M” for “Siiyama”, “(at” for “(at 1 or”, “six” for “eight”
as §1, with “volume/well).” for “volume/well). The capture antibody was then removed and wells washed three times with 300 μl wash buffer (0.05% Tween 20 in PBS) and then 200 μl reagent diluent (25% Tween 20 in PBS) was incubated in each well for 1 h at room temperature.”
as §2

Sequence of human Z A1AT (P01009 25-418 E366K): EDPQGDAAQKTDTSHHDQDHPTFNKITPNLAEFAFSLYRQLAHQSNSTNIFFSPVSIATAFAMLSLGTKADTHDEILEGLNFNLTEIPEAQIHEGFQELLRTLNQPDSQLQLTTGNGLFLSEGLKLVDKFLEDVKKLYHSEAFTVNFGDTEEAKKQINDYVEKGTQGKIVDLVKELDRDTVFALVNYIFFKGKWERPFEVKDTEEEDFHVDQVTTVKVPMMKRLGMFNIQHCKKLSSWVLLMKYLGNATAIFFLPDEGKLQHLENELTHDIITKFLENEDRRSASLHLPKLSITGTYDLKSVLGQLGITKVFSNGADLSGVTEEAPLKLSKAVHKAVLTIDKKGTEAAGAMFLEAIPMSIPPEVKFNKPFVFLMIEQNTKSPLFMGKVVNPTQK
T2 sequence (P01009 25-418): as the sequence (P01009 25-418 E366K) above, with K342E counted along it
T1 sequence (P01009 25-418 S77F): as the sequence (P01009 25-418 E366K) above, with S53F, K342E counted along it

Row | half-life [1] | clearance [1] | Vd [1] | SMILES | secretion of Z A1AT as measured by ELISA [2] | secretion of Siiyama A1AT as measured by ELISA [3] | secretion of M A1AT as measured by ELISA [4]
1 | 52 min | 10.6 mL/min/kg | 0.72 L/kg | [2H]C([2H])([2H])N(C(=O)c1ccc(Cn2cnccc2=O)cc1)C([2H])([2H])[2H] [N,N-(bis-methyl-d3)-4-((6-oxopyrimidin-1(6H)-yl)methyl)benzamide] | stimulates secretion of Z A1AT in a dose dependent manner | – | –
2 | 63 min | 10.6 mL/min/kg | 1 L/kg | CNC(=O)c1ccc(Cn2cnccc2=O)cc1 [N-methyl-4-((6-oxopyrimidin-1(6H)-yl)methyl)benzamide] | stimulates secretion of Z A1AT in a dose dependent manner | – | –
3 | – | – | – | O=C(CCCCCCC(=O)Nc1ccccc1)NO [SAHA, suberanilohydroxamic acid, reference compound] | – | stimulates an increase in Siiyama A1AT secretion | stimulates an increase in M A1AT secretion
